# Source: patent publication US20150368655A1, “TRANSFORMED EUGLENA AND PROCESS FOR PRODUCING SAME” (OSAKA PREFECTURE UNIVERSITY PUBLIC CORPORATION, priority 2012, published 2015)
# Test system: Euglena wild strain
# Test: Growth inhibition / drug sensitivity of the Euglena wild strain in KH medium
# Assay type: cell-based, Euglena gracilis
# Procedure: Euglena gracilis Klebs Z strain (hereafter, “Euglena wild strain”), which has chloroplasts, was used.
# Koren-Hutner medium (KH medium) was used as a heterotrophic medium (Table 1). 150 ml of the KH medium adjusted to a pH of 6.8 was placed in a 500 ml Sakaguchi flask and sterilized by autoclaving at 121° C. for 15 minutes. 1 ml of Euglena that reached the stationary phase by culturing for about 4 to 7 days (10 to 15×10^6 cells/ml) was inoculated into the medium, followed by culture with shaking at 27° C. under continuous light conditions for 24 hours. A plate medium was prepared by adding 1.0%(w/v) of agar powder.
# The minimum inhibitory concentration of zeocin for the Euglena wild strain in a medium at a pH of 6.8 was examined. […] The growth inhibition was observed even when the number of cells at the start of culture was relatively large (2.0×10^6 cells/ml in a liquid medium, 2.0×10^6 cells/plate in a plate medium).
# The influence of cefotaxime, which is used to remove Agrobacterium, on the growth of Euglena in transformation by the Agrobacterium method was examined. The results reveal that cefotaxime had no influence on the growth of the Euglena wild strain to at least 500 μg/ml (FIG. 8). Thus, a selective medium containing cefotaxime was used.
smiles,measurement,setting,value
CN[C@@H]1[C@@H](O)[C@@H](O[C@@H]2[C@@H](O)[C@H](O[C@H]3O[C@H]([C@@H](C)O)[C@@H](O)[C@H](O)[C@H]3N)[C@@H](N)C[C@H]2N)OC[C@]1(C)O [G418],Growth of the Euglena wild strain,as the concentrations increased (FIGS. 9 and 10),inhibited the growth
CO/N=C(\C(=O)N[C@@H]1C(=O)N2C(C(=O)O)=C(COC(C)=O)CS[C@H]12)c1csc(N)n1 [cefotaxime],Influence on the growth of the Euglena wild strain,to at least 500 μg/ml (FIG. 8),no influence
Cc1c(N)nc([C@H](CC(N)=O)NC[C@H](N)C(N)=O)nc1C(=O)N[C@H](C(=O)N[C@H](C)[C@@H](O)[C@H](C)C(=O)N[C@H](C(=O)NCCC1=N[C@@H](c2nc(C(=O)NCCCCN=C(N)N)cs2)CS1)[C@@H](C)O)[C@@H](O[C@@H]1O[C@@H](CO)[C@@H](O)[C@H](O)[C@@H]1O[C@H]1O[C@H](CO)[C@@H](O)[C@H](OC(N)=O)[C@@H]1O)c1cnc[nH]1 [zeocin],Minimum inhibitory concentration (growth completely inhibited),"liquid medium, pH of 6.8",50 µg/mL
same,Growth of the Euglena wild strain,"medium containing 100 μg/ml of zeocin, liquid medium (FIG. 5) or plate medium (FIG. 6)",almost completely inhibited
same,Minimum inhibitory concentration (growth nearly inhibited),"plate medium, pH of 6.8",25 µg/mL
